Measured values published in ChEMBL document CHEMBL2384934, “Discovery of 3-phenyl-1H-5-pyrazolylamine derivatives containing a urea pharmacophore as potent and efficacious inhibitors of FMS-like tyrosine kinase-3 (FLT3)” (Bioorg Med Chem, 2013).
The source made the active and inactive calls. No cut-off for these calls is given here.

How the values were obtained:
[1] = test system: Mus musculus; assay: Toxicity in nu/nu mouse xenografted with human MOLM13 cells at 1 to 10 mg/kg, iv qd administered on days 1 to 5 and day 8 to 12; assay type: organism-based, MOLM-13; design: route intravenous; conditions: in vivo
[2] = test system: MOLM-13; assay: Antitumor activity against human MOLM13 cells xenografted in nu/nu mouse at 10 mg/kg, iv qd administered on days 1 to 5 and day 8 to 12 measured after 48 days; assay type: functional; conditions: read-out: TGI
[3] = test system: MOLM-13; assay: Antitumor activity against human MOLM13 cells xenografted in nu/nu mouse at 10 mg/kg, iv qd administered on days 1 to 5 and days 8 to 12 measured on day 16; assay type: functional; conditions: MOLM-13, 384 h, read-out: TGI
[4] = test system: MOLM-13; assay: Antitumor activity against human MOLM13 cells xenografted in nu/nu mouse at 3 mg/kg, iv qd administered on days 1 to 5 and days 8 to 12; assay type: functional, organism-based; design: dose 3 mg/kg
[5] = test system: Mus musculus; assay: Toxicity in mouse assessed as loss of body weight at 25 mg/kg, iv for 5 days; assay type: organism-based; design: dose 25 mg/kg, route intravenous; conditions: in vivo, 120 h
[6] = test system: Mus musculus; assay: Toxicity in mouse assessed as mortality at 25 mg/kg, iv for 5 days; assay type: organism-based; design: dose 25 mg/kg, route intravenous; conditions: in vivo, 120 h
[7] = Oral bioavailability in Sprague-Dawley rat at 10 mg/kg; assay type: ADME, organism-based; conditions: in vivo
[8] = Volume of distribution at steady state in Sprague-Dawley rat at 2 mg/kg, iv; assay type: ADME, organism-based; design: dose 2 mg/kg, route intravenous; conditions: in vivo, read-out: Vdss
[9] = Plasma clearance in Sprague-Dawley rat at 2 mg/kg, iv; assay type: ADME, organism-based; design: dose 2 mg/kg, route intravenous
[10] = test system: MV4-11; assay: Cytotoxicity against human MV4-11 cells harboring FLT3/ITD mutant after 72 hrs by MTS assay; assay type: functional; conditions: MV4-11, 72 h
[11] = target: Platelet-derived growth factor receptor beta (Homo sapiens) (UniProt P09619); assay: Inhibition of PDGFRB (unknown origin) at 1 uM by kinase Glo assay
[12] = target: Platelet-derived growth factor receptor alpha (Homo sapiens) (UniProt P16234); assay: Inhibition of PDGFRA (unknown origin) at 1 uM by kinase Glo assay
[13] = target: Hepatocyte growth factor receptor (Homo sapiens) (UniProt P08581); assay: Inhibition of MET (unknown origin) at 1 uM by kinase Glo assay
Sequence of Hepatocyte growth factor receptor (Homo sapiens) (P08581 whole entry): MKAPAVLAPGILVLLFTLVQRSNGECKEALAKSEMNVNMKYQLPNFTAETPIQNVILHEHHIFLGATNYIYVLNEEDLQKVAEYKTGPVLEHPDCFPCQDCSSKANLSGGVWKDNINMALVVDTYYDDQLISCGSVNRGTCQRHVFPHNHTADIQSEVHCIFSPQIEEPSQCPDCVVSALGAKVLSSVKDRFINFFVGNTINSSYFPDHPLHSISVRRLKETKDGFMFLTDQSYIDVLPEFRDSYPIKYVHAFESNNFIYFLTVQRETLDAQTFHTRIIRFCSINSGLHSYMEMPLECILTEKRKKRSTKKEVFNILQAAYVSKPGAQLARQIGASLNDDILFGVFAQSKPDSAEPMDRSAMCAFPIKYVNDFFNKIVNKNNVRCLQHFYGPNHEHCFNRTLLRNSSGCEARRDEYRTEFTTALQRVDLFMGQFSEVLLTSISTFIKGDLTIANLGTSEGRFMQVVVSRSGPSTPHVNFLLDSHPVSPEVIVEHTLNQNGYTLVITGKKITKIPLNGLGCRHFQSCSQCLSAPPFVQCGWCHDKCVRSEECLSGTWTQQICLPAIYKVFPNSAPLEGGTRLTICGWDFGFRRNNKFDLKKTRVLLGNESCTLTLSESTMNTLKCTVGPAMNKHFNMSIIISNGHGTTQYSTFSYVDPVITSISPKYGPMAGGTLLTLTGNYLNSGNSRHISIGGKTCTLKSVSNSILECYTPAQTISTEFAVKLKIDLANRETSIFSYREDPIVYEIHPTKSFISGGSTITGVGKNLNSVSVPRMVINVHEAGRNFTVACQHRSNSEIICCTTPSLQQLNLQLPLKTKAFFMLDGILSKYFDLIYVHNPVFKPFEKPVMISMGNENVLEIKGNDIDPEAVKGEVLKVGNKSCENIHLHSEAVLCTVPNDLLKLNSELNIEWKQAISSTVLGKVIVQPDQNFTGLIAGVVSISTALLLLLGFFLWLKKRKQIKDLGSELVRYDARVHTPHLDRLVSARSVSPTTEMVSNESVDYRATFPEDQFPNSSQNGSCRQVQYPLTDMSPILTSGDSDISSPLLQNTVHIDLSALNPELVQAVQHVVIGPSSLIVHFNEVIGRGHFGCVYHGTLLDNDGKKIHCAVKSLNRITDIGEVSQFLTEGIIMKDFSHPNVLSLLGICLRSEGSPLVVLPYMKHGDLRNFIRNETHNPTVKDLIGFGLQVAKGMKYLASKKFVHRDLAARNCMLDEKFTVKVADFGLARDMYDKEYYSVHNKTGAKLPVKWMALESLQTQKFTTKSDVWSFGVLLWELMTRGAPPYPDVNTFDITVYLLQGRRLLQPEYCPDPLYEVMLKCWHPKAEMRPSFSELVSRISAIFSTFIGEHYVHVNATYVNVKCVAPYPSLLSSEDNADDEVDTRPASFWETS

[14] = target: Vascular endothelial growth factor receptor 2 (Homo sapiens, UniProt P35968); assay: Inhibition of KDR (unknown origin) at 1 uM by kinase Glo assay
[15] = target: Serine/threonine-protein kinase mTOR (Homo sapiens) (UniProt P42345); assay: Inhibition of FRAP1 (unknown origin) at 1 uM by kinase Glo assay
[16] = target: Tyrosine-protein kinase receptor TYRO3 (Homo sapiens) (UniProt Q06418); assay: Inhibition of TYRO3 (unknown origin) at 1 uM
[17] = target: Proto-oncogene tyrosine-protein kinase Src (Homo sapiens) (UniProt P12931); assay: Inhibition of SRC (unknown origin) at 1 uM
Sequence of Proto-oncogene tyrosine-protein kinase Src (Homo sapiens) (P12931 2-536 limits assumed): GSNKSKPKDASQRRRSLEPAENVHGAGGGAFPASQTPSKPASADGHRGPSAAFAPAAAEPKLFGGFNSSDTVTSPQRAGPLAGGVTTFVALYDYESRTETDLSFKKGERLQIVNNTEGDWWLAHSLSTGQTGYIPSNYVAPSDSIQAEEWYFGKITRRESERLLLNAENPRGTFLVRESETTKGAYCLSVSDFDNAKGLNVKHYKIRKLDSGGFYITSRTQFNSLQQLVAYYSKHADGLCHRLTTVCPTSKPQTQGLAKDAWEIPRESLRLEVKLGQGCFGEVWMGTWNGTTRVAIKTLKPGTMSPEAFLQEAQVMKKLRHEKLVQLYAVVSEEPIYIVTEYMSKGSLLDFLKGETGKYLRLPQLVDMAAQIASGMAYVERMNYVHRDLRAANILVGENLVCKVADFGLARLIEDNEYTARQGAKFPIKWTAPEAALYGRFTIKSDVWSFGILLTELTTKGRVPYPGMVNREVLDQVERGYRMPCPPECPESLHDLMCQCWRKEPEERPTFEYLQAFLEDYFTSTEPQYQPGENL

[18] = target: Angiopoietin-1 receptor (Homo sapiens) (UniProt Q02763); assay: Inhibition of TEK (unknown origin) at 1 uM
[19] = target: Ribosomal protein S6 kinase beta-1 (Homo sapiens) (UniProt P23443); assay: Inhibition of RPS6KB1 (unknown origin) at 1 uM
[20] = target: Macrophage-stimulating protein receptor (Homo sapiens) (UniProt Q04912); assay: Inhibition of MST1R (unknown origin) at 1 uM
[21] = target: Mitogen-activated protein kinase 14 (Homo sapiens) (UniProt Q16539); assay: Inhibition of MAPK14 (unknown origin) at 1 uM
[22] = target: Mitogen-activated protein kinase 10 (Homo sapiens) (UniProt P53779); assay: Inhibition of MAPK10 (unknown origin) at 1 uM
Sequence of Mitogen-activated protein kinase 10 (Homo sapiens) (P53779 whole entry): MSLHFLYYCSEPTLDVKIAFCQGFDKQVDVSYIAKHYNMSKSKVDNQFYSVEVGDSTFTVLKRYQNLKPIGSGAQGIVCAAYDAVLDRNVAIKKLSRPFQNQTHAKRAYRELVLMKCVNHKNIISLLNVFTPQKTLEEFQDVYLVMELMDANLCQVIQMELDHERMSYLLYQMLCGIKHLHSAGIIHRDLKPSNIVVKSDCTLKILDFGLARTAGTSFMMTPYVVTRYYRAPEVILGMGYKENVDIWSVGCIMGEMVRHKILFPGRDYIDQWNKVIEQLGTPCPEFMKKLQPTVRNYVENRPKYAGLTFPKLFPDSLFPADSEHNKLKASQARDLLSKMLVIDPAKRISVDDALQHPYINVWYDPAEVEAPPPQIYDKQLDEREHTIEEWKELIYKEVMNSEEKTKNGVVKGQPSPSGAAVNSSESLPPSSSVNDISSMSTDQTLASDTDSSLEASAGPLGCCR

[23] = target: Dual specificity mitogen-activated protein kinase kinase 1 (Homo sapiens) (UniProt Q02750); assay: Inhibition of MAP2K1 (unknown origin) at 1 uM
[24] = target: Tyrosine-protein kinase JAK1 (Homo sapiens) (UniProt P23458); assay: Inhibition of JAK1 (unknown origin) at 1 uM
[25] = target: Tyrosine-protein kinase JAK2 (Homo sapiens) (UniProt O60674); assay: Inhibition of JAK2 (unknown origin) at 1 uM
Sequence of Tyrosine-protein kinase JAK2 (Homo sapiens) (O60674 whole entry): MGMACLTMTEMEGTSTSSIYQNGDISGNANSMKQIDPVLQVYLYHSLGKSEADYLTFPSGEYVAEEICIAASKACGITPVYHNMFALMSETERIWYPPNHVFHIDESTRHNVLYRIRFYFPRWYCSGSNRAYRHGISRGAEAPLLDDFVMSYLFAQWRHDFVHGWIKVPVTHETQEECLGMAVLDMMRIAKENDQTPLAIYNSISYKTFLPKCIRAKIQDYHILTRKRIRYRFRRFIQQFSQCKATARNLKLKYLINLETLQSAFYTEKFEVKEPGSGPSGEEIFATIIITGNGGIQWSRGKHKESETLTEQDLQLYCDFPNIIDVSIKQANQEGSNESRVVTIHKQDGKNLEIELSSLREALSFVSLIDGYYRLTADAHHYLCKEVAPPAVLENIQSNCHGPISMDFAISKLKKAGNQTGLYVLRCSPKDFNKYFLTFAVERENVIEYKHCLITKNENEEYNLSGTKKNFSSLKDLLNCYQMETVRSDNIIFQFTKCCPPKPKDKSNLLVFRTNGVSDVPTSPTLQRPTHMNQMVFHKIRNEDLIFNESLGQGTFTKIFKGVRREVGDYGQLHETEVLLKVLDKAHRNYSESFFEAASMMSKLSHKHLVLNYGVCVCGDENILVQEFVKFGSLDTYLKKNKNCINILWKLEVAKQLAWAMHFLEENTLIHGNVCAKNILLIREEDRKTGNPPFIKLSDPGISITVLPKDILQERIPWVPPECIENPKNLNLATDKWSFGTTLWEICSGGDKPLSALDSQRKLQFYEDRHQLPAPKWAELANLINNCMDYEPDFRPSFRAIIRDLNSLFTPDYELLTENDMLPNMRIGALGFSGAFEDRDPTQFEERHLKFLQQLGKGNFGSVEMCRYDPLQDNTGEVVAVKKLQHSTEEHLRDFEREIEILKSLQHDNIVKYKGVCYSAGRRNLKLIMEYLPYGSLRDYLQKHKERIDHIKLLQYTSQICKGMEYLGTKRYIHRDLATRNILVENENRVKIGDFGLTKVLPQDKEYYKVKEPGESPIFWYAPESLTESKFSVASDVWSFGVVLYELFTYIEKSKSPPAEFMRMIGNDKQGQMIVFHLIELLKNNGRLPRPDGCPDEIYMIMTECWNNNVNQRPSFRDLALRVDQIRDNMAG

[26] = target: Inhibitor of nuclear factor kappa-B kinase subunit epsilon (Homo sapiens) (UniProt Q14164); assay: Inhibition of IKBKE (unknown origin) at 1 uM
[27] = target: Insulin-like growth factor 1 receptor (Homo sapiens) (UniProt P08069); assay: Inhibition of IGF1R (unknown origin) at 1 uM
[28] = target: Inhibitor of nuclear factor kappa-B kinase subunit beta (Homo sapiens) (UniProt O14920); assay: Inhibition of IKBKB (unknown origin) at 1 uM
[29] = target: Glycogen synthase kinase-3 alpha (Homo sapiens) (UniProt P49840); assay: Inhibition of GSK3A (unknown origin) at 1 uM
[30] = target: Receptor tyrosine-protein kinase erbB-2 (Homo sapiens) (UniProt P04626); assay: Inhibition of ERBB2 (unknown origin) at 1 uM
[31] = target: Ephrin type-A receptor 2 (Homo sapiens) (UniProt P29317); assay: Inhibition of EPHA2 (unknown origin) at 1 uM
[32] = target: Macrophage colony-stimulating factor 1 receptor (Homo sapiens) (UniProt P07333); assay: Inhibition of CSF1R (unknown origin) at 1 uM
[33] = target: Tyrosine-protein kinase BTK (Homo sapiens) (UniProt Q06187); assay: Inhibition of BTK (unknown origin) at 1 uM
[34] = target: Aurora kinase B (Homo sapiens) (UniProt Q96GD4); assay: Inhibition of AURKB (unknown origin) at 1 uM
Sequence of Aurora kinase B (Homo sapiens) (Q96GD4 whole entry): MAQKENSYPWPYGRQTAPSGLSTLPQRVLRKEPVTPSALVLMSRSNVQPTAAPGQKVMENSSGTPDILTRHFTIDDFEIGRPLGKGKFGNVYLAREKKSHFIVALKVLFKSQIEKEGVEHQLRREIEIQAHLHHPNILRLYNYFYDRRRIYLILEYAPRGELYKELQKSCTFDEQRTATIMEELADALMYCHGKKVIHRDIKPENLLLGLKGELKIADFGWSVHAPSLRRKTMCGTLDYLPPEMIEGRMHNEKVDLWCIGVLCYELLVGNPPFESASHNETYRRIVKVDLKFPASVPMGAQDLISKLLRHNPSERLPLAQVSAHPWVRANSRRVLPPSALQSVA

[35] = target: AMP-activated protein kinase (AMPK) alpha-1/beta-1/gamma-1 (Homo sapiens) (UniProt P54619+Q9Y478+Q13131); assay: Inhibition of Ampk A1/B1/G1 (unknown origin) at 1 uM; assay type: protein-complex assay
Sequence of AMP-activated protein kinase (AMPK) alpha-1/beta-1/gamma-1 (Homo sapiens) (P54619 whole entry): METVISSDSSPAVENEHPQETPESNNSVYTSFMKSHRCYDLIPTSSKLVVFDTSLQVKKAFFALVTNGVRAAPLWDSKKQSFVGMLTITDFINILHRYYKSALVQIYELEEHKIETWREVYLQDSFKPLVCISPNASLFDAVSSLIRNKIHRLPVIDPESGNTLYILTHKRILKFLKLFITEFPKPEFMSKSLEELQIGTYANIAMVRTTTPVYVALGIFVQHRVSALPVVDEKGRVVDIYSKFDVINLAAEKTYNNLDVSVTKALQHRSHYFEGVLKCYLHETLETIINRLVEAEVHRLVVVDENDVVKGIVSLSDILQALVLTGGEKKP
Sequence of AMP-activated protein kinase (AMPK) alpha-1/beta-1/gamma-1 (Homo sapiens) (Q13131 whole entry partner): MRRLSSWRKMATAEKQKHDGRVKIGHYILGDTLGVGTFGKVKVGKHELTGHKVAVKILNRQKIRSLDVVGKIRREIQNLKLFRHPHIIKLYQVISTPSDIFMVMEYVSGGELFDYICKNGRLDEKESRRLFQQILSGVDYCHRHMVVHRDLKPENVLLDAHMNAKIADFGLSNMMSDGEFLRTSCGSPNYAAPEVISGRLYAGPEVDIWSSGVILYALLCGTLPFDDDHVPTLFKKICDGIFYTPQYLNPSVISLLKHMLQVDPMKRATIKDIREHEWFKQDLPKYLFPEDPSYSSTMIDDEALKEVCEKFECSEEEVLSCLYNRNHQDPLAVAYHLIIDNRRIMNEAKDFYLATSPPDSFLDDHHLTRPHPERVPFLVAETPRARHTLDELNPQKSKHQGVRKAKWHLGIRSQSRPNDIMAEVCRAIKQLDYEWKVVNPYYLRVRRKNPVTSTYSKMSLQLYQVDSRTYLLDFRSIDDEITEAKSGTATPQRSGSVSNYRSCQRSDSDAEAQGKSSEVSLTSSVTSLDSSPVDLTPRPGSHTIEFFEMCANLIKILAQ
Sequence of AMP-activated protein kinase (AMPK) alpha-1/beta-1/gamma-1 (Homo sapiens) (Q9Y478 2-270 partner limits assumed): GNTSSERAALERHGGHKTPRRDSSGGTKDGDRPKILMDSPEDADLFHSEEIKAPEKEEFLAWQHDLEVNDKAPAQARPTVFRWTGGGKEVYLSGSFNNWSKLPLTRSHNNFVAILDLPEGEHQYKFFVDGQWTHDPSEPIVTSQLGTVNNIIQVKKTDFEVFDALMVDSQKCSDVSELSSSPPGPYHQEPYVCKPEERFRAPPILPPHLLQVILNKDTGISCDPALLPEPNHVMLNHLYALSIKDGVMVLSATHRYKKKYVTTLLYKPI

[36] = test system: MOLM-13; assay: cells; conditions: Homo sapiens, MOLM-13, 72 h
[37] = target: T1, Aurora kinase A (Homo sapiens, UniProt O14965); assay: biochemical
T1 sequence (O14965 whole entry): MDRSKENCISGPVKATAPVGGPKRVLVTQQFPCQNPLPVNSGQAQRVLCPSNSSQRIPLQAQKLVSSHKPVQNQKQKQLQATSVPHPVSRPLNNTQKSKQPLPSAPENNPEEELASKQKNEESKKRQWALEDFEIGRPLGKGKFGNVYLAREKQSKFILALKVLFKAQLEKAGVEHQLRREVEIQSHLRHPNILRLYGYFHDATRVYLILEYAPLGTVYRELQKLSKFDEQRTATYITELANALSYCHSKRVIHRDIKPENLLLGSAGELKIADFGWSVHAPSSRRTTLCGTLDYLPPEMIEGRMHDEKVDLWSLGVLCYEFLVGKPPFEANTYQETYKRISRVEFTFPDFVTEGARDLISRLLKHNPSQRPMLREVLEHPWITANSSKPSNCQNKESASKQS
Description: Inhibition of recombinant GST tagged Aurora A kinase (123 to 401) (unknown origin) transfected in insect sf9 cells after 90 mins by wallac counting analysis

## CC(C)(C)c1cc(NC(=O)NCc2ccc(-c3cc(NC(=O)c4ccc(OCCN5CCOCC5)cc4)[nH]n3)cc2)no1
[1]
  Activity: Non-toxic
[2]
  inhibition in vivo at 10 mg/kg: 70%
[3]
  inhibition in vivo at 10 mg/kg: 84%
[4]
  inhibition: Active
[5]
  Activity: Non-toxic
[6]
  Activity: Non-toxic
[7]
  bioavailability: 1%
[8]
  Vd: 3.6 L/kg
[9]
  clearance: 10.7 mL/min/kg
[10]
  GI50: 2 nM
[11]
  inhibition: 97%
[12]
  inhibition: 85%
[13]
  inhibition: 40%
[14]
  inhibition: 99%
[15]
  inhibition: -1%
[16]
  inhibition: 24%
[17]
  inhibition: 35%
[18]
  inhibition: 83%
[19]
  inhibition: 41%
[20]
  inhibition: 13%
[21]
  inhibition: 3%
[22]
  inhibition: -3%
[23]
  inhibition: 13%
[24]
  inhibition: 82%
[25]
  inhibition: 79%
[26]
  inhibition: -5%
[27]
  inhibition: -1%
[28]
  inhibition: -2%
[29]
  inhibition: 6%
[30]
  inhibition: -1%
[31]
  inhibition: 19%
[32]
  inhibition: 95%
[33]
  inhibition: -6%
[34]
  inhibition: 79%
[35]
  inhibition: 94%
[36]
  GI50: 3 nM
[37]
  IC50: > 1000 nM
